Series [1] relates to human coronary artery smooth muscle cells. Briefly: anti-proliferative activity in synchronized cultured cells stimulated with two percent fetal bovine serum. The format is cell-based. From the text:
(§1) The multiple curves represent various concentrations of topotecan ranging from zero to three hundred nanomolar concentrations.
(§2) The multiple curves represent various concentrations of etoposide ranging from zero to eight hundred nanomolar concentrations.
The multiple curves represent various concentrations of Panzem® ranging from zero to 100 micromolar concentrations.

The subject of the next series is cell viability. Briefly: cell viability assay. The format is cell-based.
Excerpt: as §1, §2

For series [2], the system named is human coronary artery smooth muscle cells. Briefly: anti-proliferative activity in non-synchronized cultured cells stimulated with two percent fetal bovine serum. The format is cell-based. From the text:
The multiple curves represent various concentrations of mycophenolic acid ranging from zero to one thousand nanomolar concentrations.
FIG. 58 illustrates, in graphical format, the anti-proliferative activity of cladribine in non-synchronized cultured human coronary artery smooth muscle cells stimulated with two percent fetal bovine serum.
The multiple curves represent various concentrations of cladribine ranging from zero to nine hundred nanomolar concentrations.

Series [3] is described as follows: in vivo release kinetics from rapamycin, mycophenolic acid and polymer coating, porcine pharmacokinetics studies. The note with it: 180 micrograms each drug, with or without BMA topcoat.
Series [4] has as its system human smooth muscle cells. Briefly: Cladribine example, PDGF-stimulated cell proliferation, smooth muscle cells. The format is cell-based. The note with it: for % of PDGF-stimulated increase in cell count: SMC, day six, mean of triplicate. The protocol:
(§3) To assess the ability of cladribine to prevent cell proliferation, human smooth muscle or endothelial cells (Clonetics, Walkersville, Md.) were seeded at a density of 2000 cells/cm^2 (approximately 3600 cells/well) into each well of 12-well plates and cultured with 1.5 ml of growth medium containing five percent fetal calf serum (FCS). After twenty-four hours, the growth medium was changed and fresh medium containing 10 ng/ml platelet-derived growth factor AB (PDGF AB; LIFE Technologies), as well as various concentrations of cladribine (0.001-10,000 nM) were added with triplicate wells. Medium was replaced with fresh cladribine-containing medium after three days. On day six, cells were detached by trypsinization to yield a cell suspension, lightly centrifuged to pellet and then counted manually using a Neubauer hemocytometer system. Cell viability was assessed by trypan blue exclusion.

In the next series the test system is human endothelial cells. Briefly: Cladribine example, PDGF-stimulated cell proliferation, endothelial cells. The format is cell-based. The note with it: for % of PDGF-stimulated increase in cell count: EC, day six, mean of triplicate. The protocol: as §3
Series [5] is described as follows: in vivo release kinetics of cladribine from polymeric stent coatings. More on the design: species or system Yorkshire pig. The note with it: Bx Velocity stents.
Excerpt: FIG. 61 is a graphical representation of the in vivo release kinetics of cladribine from a polymeric coating on BxVelocity® stents, available from Cordis Corporation, implanted in a Yorkshire pig. The basecoat comprises an 85/15 ratio of PVDF and HFP and cladribine for a total combined weight of one thousand eight hundred micrograms (cladribine comprising thirty percent of the total weight). […]
(§4) The basecoat is applied to Bx Velocity® stents and implanted into Yorkshire pigs.
as §4

Series [6] deals with human coronary artery smooth muscle cell proliferation. Briefly: in vitro cell culture study, coronary artery smooth muscle cell proliferation. The format is cell-based. From the text:
FIG. 51 is a graph of the inhibition of coronary artery smooth muscle cells by trichostatin A in a cell culture study.

A further series relates to tumor cell lines. The note with it: tumor cell lines (Woo et al., 2002); cited from earlier work.

Consider `COc1cc([C@@H]2c3cc4c(cc3[C@@H](O[C@@H]3O[C@@H]5CO[C@@H](C)O[C@H]5[C@H](O)[C@H]3O)[C@H]3COC(=O)[C@H]23)OCO4)cc(OC)c1O` [Etoposide, etoposide], for which the “effect of addition on anti-proliferative activity of rapamycin” value (“effect of addition” for short) in series [1] (etoposide zero to eight hundred nanomolar added to rapamycin) is reported as “increases the percent inhibition of rapamycin alone”. The cytotoxicity result in the series on cell viability (at concentrations up to ten micromolar) is “non-cytotoxic”.

In the case of `COc1c(C)c2c(c(O)c1C/C=C(\C)CCC(=O)O)C(=O)OC2` [mycophenolic acid], the “effect of addition” value in series [2] (mycophenolic acid zero to one thousand nanomolar added to rapamycin, non-synchronized cells) is “potentiates the anti-proliferative activity of rapamycin”. For the same compound, in [3], the “release from EVA/BMA basecoat compared with rapamycin” value is reported as “elutes more completely over a shorter duration than the rapamycin”.

Take `CC[C@@]1(O)C(=O)OCc2c1cc1n(c2=O)Cc2cc3c(CN(C)C)c(O)ccc3nc2-1` [Topotecan, topotecan]: the “effect of addition” value in [1] (topotecan zero to three hundred nanomolar added to rapamycin) was “increases the percent inhibition of rapamycin alone”. Also, the cytotoxicity entry with cell viability (at concentrations up to one micromolar) is recorded as “non-cytotoxic”.

As a reminder, the IC50 is the concentration that gives 50% inhibition. With `Nc1nc(Cl)nc2c1ncn2[C@H]1C[C@H](O)[C@@H](CO)O1` [Cladribine, 2-chlorodeoxyadenosine], the half-inhibitory concentration (IC50) in [4] (Homo sapiens, PDGF AB stimulated, reduction to 50 percent of vehicle-treated cell count, read-out: IC50 for inhibition of smooth muscle cell growth) was 23 nM; in the series on human endothelial cells (Homo sapiens, Endothelial cell, PDGF AB stimulated, reduction to 50 percent of vehicle-treated cell count, read-out: IC50 for inhibition of endothelial cell growth) it was 40 nM; in [2] (non-synchronized human coronary artery smooth muscle cells, two percent fetal bovine serum) it was ~241 nM. Further, the “% of PDGF-stimulated increase in cell count” value (“% of PDGF-stimulated increase” for short) in series [4] (cladribine 0.01 nM) is on record as 104%; in series [4] (cladribine 0.1 nM), 86%; in series [4] (cladribine 1 nM) it was 85%; in [4] (cladribine 10 nM), 54%; in [4] (cladribine 100 nM), 58%; in series [4] (cladribine 1000 nM), 12%. The “% of PDGF-stimulated increase” value in [4] (cladribine 10,000 nM) is −4%; with human endothelial cells (cladribine 0.001 nM), 100%; in the series with human endothelial cells (cladribine 0.01 nM) it was 90%; in the series with human endothelial cells (cladribine 0.1 nM) it was 79%; with human endothelial cells (cladribine 1 nM), 75%; in the series on human endothelial cells (cladribine 10 nM) it was 59%. Also, the “% of PDGF-stimulated increase” value worked out at 57% with human endothelial cells (cladribine 100 nM), 35% in the series with human endothelial cells (cladribine 1000 nM) and 10% in the series with human endothelial cells (cladribine 10,000 nM). Moreover, in [4] (from the IC50 values), the “potency on smooth muscle cells relative to endothelial cells” value was “approximately twice as potent”. The “effect of addition” value in [2] (cladribine zero to nine hundred nanomolar added to rapamycin, non-synchronized cells) is “increases the percent inhibition of rapamycin alone”. In addition, in series [2] (non-synchronized cells, two percent fetal bovine serum), the “inhibition of human coronary artery smooth muscle cell proliferation” value is “completely inhibits”. For the same compound, the “elution from PVDF/HFP (85/15) coating” value in [5] (Yorkshire pig, 1800 microgram basecoat with thirty percent cladribine, 300 microgram topcoat) was “levels off significantly”. The “elution from EVA/BMA basecoat compared with rapamycin” value in series [5] (Yorkshire pigs, 200 microgram BMA topcoat) is “elutes more rapidly than rapamycin”.

For `CC(/C=C/C(=O)NO)=C\[C@@H](C)C(=O)c1ccc(N(C)C)cc1` [trichostatin A], in [6] (human coronary artery smooth muscle cells, cell culture, read-out: anti-proliferative IC50), the half-inhibitory concentration (IC50) is ~6 nM. In addition, the “inhibition of human coronary artery smooth muscle cell proliferation” value in series [6] (in vitro cell culture) was “completely inhibit”. Further, the “anti-proliferative IC50” value with tumor cell lines is recorded as “low nM range”.

For the compound `COc1cc2c(cc1O)CC[C@@H]1[C@@H]2CC[C@]2(C)[C@@H](O)CC[C@@H]12` [Panzem®, 2-methoxyestradiol], the “effect of addition” value in series [1] (Panzem zero to 100 micromolar added to rapamycin) was “increases the percent of inhibition of rapamycin alone”. Besides, the anti-proliferative activity alone result in [1] (two percent fetal bovine serum) is on record as “extremely effective inhibitor”.
